In patent US20240409556A1, “BENZOPIPERAZINE AND RELATED ANALOGS FOR INHIBITING YAP/TAZ-TEAD” (Springworks Therapeutics, Inc., priority 2023, published 2024):

System: YAP/TAZ-TEAD transcription
Assay: Reporter gene assay for measuring the inhibition of YAP/TAZ-TEAD transcription (TEAD-responsive element luciferase reporter in Hek293T cells)
Format: cell-based
Conditions: 24 hours incubation
Experimental: Example 56: Activity of Compounds of the Disclosure in a Reporter Gene Assay for Measuring the Inhibition of YAP/TAZ-TEAD Transcription
Hek293T cells were cultured in DMEM supplemented with 10% fetal bovine serum, Sodium pyruvate, Sodium bicarbonate, L-glutamine. The cells were harvested and transiently transfected with TEAD-responsive element luciferase reporter. Transfected cells were plated in 384-well plate containing pre-diluted compounds. After 24 hours incubation at 37° C./5% CO2, assay plates were cooled to room temperature and levelled to an equal volume per well, prior to the addition of 25 uL luciferase substrate SteadyLite (Perkin Elmer)/well. The plate was shaken for 10 min at 600 rpm, centrifuged for 1 min at 500 rpm and measured with an Envision reader (PerkinElmer). The amount of relative light units produced by the TEAD reporter was used to calculate the percentage of inhibition.
The percent of reporter inhibition was calculated in the presence of a positive control inhibitor (100% inhibition) versus a condition with the presence of the vehicle basal activity of the reporter (0% inhibition). The ability of a test compound to inhibit this activity was determined as: Percentage inhibition=[[…]((RLU determined in the presence of vehicle−RLU determined for sample with test compound present) divided by (RLU determined in the presence of vehicle−RLU determined for sample with positive control inhibitor))]*100.
The activities of example compounds tested are depicted in Table 3. The activity ranges A, B and C refer to IC50 values in the reporter gene assay as follows: “A”: IC50<1 μM; “B”: 1 μM≤IC50≤10 μM and “C”: IC50>10 μM; NT=not tested.

Structure (SMILES)	IC50 [nM]
CNS(=O)(=O)N1CCN2c3ncccc3N(c3ccc(C(F)(F)F)cc3)CC2C1 (single isomer, unassigned) [45-En1, (R)- or (S)-N-methyl-5-(4-(trifluoromethyl)phenyl)-5,6,6a,7,9,10-hexahydro-8H-pyrazino[1,2-a]pyrido[3,2-e]pyrazine-8-sulfonamide]	< 1000
CC(=O)NCC1CN(c2ccc(C(F)(F)F)cc2)c2cccnc2O1 (single isomer, unassigned) [49-En2, (R)- or (S)-N-((1-(4-(trifluoromethyl)phenyl)-2,3-dihydro-1H-pyrido[2,3-b][1,4]oxazin-3-yl)methyl)acetamide]	1000 to 10000
CC(=O)N1CC2CN(c3ccc(C(F)(F)F)cc3)c3ccccc3N2CC1C(=O)O (stereo not drawn) [compound 90, (cis)- or (trans)-3-acetyl-6-(4-(trifluoromethyl)phenyl)-2,3,4,4a,5,6-hexahydro-1H-pyrazino[1,2-a]quinoxaline-2-carboxylic acid]	> 10000
CC(=O)NCC1CN(c2ccc(C(F)(F)F)cc2)c2ccccc2N1 (single isomer, unassigned) [34-En1, (R)- or (S)-N-((4-(4-(trifluoromethyl)phenyl)-1,2,3,4-tetrahydroquinoxalin-2-yl)methyl)acetamide]	< 1000
CC1(C(=O)O)CCN2c3ccccc3N(c3ccc(C(F)(F)F)cc3)CC2C1 [115-D2, (6aS,8S)— or (6aR,8S)— or (6aR,8R)— or (6aS,8R)-8-methyl-5-(4-(trifluoromethyl)phenyl)-6,6a,7,8,9,10-hexahydro-5H-pyrido[1,2-a]quinoxaline-8-carboxylic acid]	< 1000
CC(=O)N1CC(=O)N2c3ccccc3N(c3ccc(C(F)(F)F)cc3)CC2C1 (single isomer, unassigned) [79-En1, (R)- or (S)-3-acetyl-6-(4-(trifluoromethyl)phenyl)-2,3,4,4a,5,6-hexahydro-1H-pyrazino[1,2-a]quinoxalin-1-one]	> 10000
CC(=O)NCC1CN(c2ccc(C(F)(F)F)cc2)c2ccc(C3CC3)nc2O1 (single isomer, unassigned) [81-En2, (R)- or (S)-N-((6-cyclopropyl-1-(4-(trifluoromethyl)phenyl)-2,3-dihydro-1H-pyrido[2,3-b][1,4]oxazin-3-yl)methyl)acetamide]	< 1000

Same assay, conditions: Homo sapiens, HEK-293T, 24 h, 24 hours incubation

Structure (SMILES)	IC50 [nM]
CC(=O)N1CCN2c3ncccc3N(c3ccc(C(F)(F)F)nc3)CC2C1 (stereo not drawn) [compound 54, 1-(5-(6-(trifluoromethyl)pyridin-3-yl)-5,6,6a,7,9,10-hexahydro-8H-pyrazino[1,2-a]pyrido[3,2-e]pyrazin-8-yl)ethan-1-one]	1000 to 10000
CC(=O)N1CC(N2CCN(c3ccc(C(F)(F)F)cc3)c3ccccc32)C1 [compound 56, 1-(3-(4-(4-(trifluoromethyl)phenyl)-3,4-dihydroquinoxalin-1(2H)-yl)azetidin-1-yl)ethan-1-one]	< 1000
FC(F)(F)c1ccc(N2CC3CC(c4nnn[nH]4)CCN3c3ccccc32)cc1 (stereo not drawn) [121-D1, 8-(1H-tetrazol-5-yl)-5-(4-(trifluoromethyl)phenyl)-6,6a,7,8,9,10-hexahydro-5H-pyrido[1,2-a]quinoxaline]	1000 to 10000
CC(=O)NCC1CN(c2ccc(C(F)(F)F)cc2)c2ccc(C(F)F)nc2O1 (stereo not drawn) [compound 112, N-((6-(difluoromethyl)-1-(4-(trifluoromethyl)phenyl)-2,3-dihydro-1H-pyrido[2,3-b][1,4]oxazin-3-yl)methyl)acetamide]	< 1000
O=C(O)C1CCN2c3ncccc3N(c3ccc(C(F)(F)F)cc3)CC2C1 [96A-En1, (6aS,8S)- or (6aR,8S)- or (6aR,8R)- or (6aS,8R)-5-(4-(trifluoromethyl)phenyl)-6,6a,7,8,9,10-hexahydro-5H-dipyrido[1,2-a:3′,2′-e]pyrazine-8-carboxylic acid]	< 1000
CS(=O)(=O)N1CCN2C(=O)CN(c3ccc(C(F)(F)F)cc3)CC2C1 (stereo not drawn) [compound 71, 8-(methylsulfonyl)-2-(4-(trifluoromethyl)phenyl)octahydro-4H-pyrazino[1,2-a]pyrazin-4-one]	> 10000
FC(F)(F)c1ccc(N2CCN(Cc3ccno3)c3ccccc32)cc1 [compound 69, 5-((4-(4-(trifluoromethyl)phenyl)-3,4-dihydroquinoxalin-1(2H)-yl)methyl)isoxazole]	> 10000
O=C(O)C1CCN(c2ccccc2Nc2ccc(C(F)(F)F)cc2)C(=O)C1 (stereo not drawn) [compound 119, 2-oxo-1-(2-((4-(trifluoromethyl)phenyl)amino)phenyl)piperidine-4-carboxylic acid]	> 10000
O=C(O)[C@H]1C[C@@H]2CN(c3ccc(C(F)(F)F)cc3)c3cccnc3N2C1 [compound 113, (6aR,8S)-5-(4-(trifluoromethyl)phenyl)-5,6,6a,7,8,9-hexahydropyrido[3,2-e]pyrrolo[1,2-a]pyrazine-8-carboxylic acid]	1000 to 10000
CC(C)(O)C(=O)N[C@@H]1C[C@@H]2CN(c3ccc(C(F)(F)F)cc3)c3cccnc3N2C1 [compound 110, 2-hydroxy-2-methyl-N-((6aR,8R)-5-(4-(trifluoromethyl)phenyl)-5,6,6a,7,8,9-hexahydropyrido[3,2-e]pyrrolo[1,2-a]pyrazin-8-yl)propanamide]	< 1000
CC(=O)NCC1CN(c2ccc(C(F)(F)F)cc2)c2ccc(OC(F)F)nc2O1 (stereo not drawn) [compound 108, N-((6-(difluoromethoxy)-1-(4-(trifluoromethyl)phenyl)-2,3-dihydro-1H-pyrido[2,3-b][1,4]oxazin-3-yl)methyl)acetamide]	1000 to 10000
Cc1ccc2c(n1)N1CCC(C(=O)O)CC1CN2c1ccc(C(F)(F)F)cc1 [101-D1, (6aS,8S)— or (6aR,8S)— or (6aR,8R)— or (6aS,8R)-2-methyl-5-(4-(trifluoromethyl)phenyl)-6,6a,7,8,9,10-hexahydro-5H-dipyrido[1,2-a:3′,2′-e]pyrazine-8-carboxylic acid]	< 1000
FC(F)(F)c1ccc(N2CCN(Cc3nnc[nH]3)c3ccccc32)cc1 [compound 50, 1-((4H-1,2,4-triazol-3-yl)methyl)-4-(4-(trifluoromethyl)phenyl)-1,2,3,4-tetrahydroquinoxaline]	< 1000
O=C(CO)N[C@@H]1C[C@@H]2CN(c3ccc(C(F)(F)F)cc3)c3cccnc3N2C1 [compound 95, 2-hydroxy-N-((6aR,8R)-5-(4-(trifluoromethyl)phenyl)-5,6,6a,7,8,9-hexahydropyrido[3,2-e]pyrrolo[1,2-a]pyrazin-8-yl)acetamide]	< 1000
O=C(O)C1CCN2c3ccc(Cl)cc3N(c3ccc(C(F)(F)F)cc3)CC2C1 (stereo not drawn) [compound 104, (cis)- or (trans)-3-chloro-5-(4-(trifluoromethyl)phenyl)-6,6a,7,8,9,10-hexahydro-5H-pyrido[1,2-a]quinoxaline-8-carboxylic acid]	1000 to 10000
O=C(C1CC1)N1CCN2c3ncccc3N(c3ccc(C(F)(F)F)cc3)CC2C1 (stereo not drawn) [compound 46, Cyclopropyl(5-(4-(trifluoromethyl)phenyl)-5,6,6a,7,9,10-hexahydro-8H-pyrazino[1,2-a]pyrido[3,2-e]pyrazin-8-yl)methanone]	< 1000
O=C(O)C1CCN2c3cc(Cl)ccc3N(c3ccc(C(F)(F)F)cc3)CC2C1 (stereo not drawn) [compound 106, (cis)- or (trans)-2-chloro-5-(4-(trifluoromethyl)phenyl)-6,6a,7,8,9,10-hexahydro-5H-pyrido[1,2-a]quinoxaline-8-carboxylic acid]	< 1000
O=C(O)C1(O)CCN2c3ccccc3N(c3ccc(C(F)(F)F)cc3)CC2C1 (stereo not drawn) [126A, (cis)- or (trans)-8-hydroxy-5-(4-(trifluoromethyl)phenyl)-6,6a,7,8,9,10-hexahydro-5H-pyrido[1,2-a]quinoxaline-8-carboxylic acid]	< 1000
C=CC(=O)NCC1CN(c2ccc(C(F)(F)F)cc2)c2ccccc2N1CCCO (stereo not drawn) [compound 5, N-((1-(3-hydroxypropyl)-4-(4-(trifluoromethyl)phenyl)-1,2,3,4-tetrahydroquinoxalin-2-yl)methyl)acrylamide]	< 1000
N#C[C@@H]1C[C@@H]2CN(c3ccc(C(F)(F)F)cc3)c3cccnc3N2C1 [compound 103, (6aR,8R)-5-(4-(trifluoromethyl)phenyl)-5,6,6a,7,8,9-hexahydropyrido[3,2-e]pyrrolo[1,2-a]pyrazine-8-carbonitrile]	> 10000
FC(F)(F)c1ccc(N2CC3CN(c4ncco4)CCN3c3ccccc32)cc1 (stereo not drawn) [compound 25, 2-(6-(4-(trifluoromethyl)phenyl)-1,2,4,4a,5,6-hexahydro-3H-pyrazino[1,2-a]quinoxalin-3-yl)oxazole]	> 10000
CC(=O)NCC1CN(c2ccc(C(F)(F)F)cc2)c2ccccc2N1CCCO (stereo not drawn) [compound 6, N-((1-(3-hydroxypropyl)-4-(4-(trifluoromethyl)phenyl)-1,2,3,4-tetrahydroquinoxalin-2-yl)methyl)acetamide]	> 10000
CN(c1ccc(C(F)(F)F)cc1)c1ccccc1N1CCC(C(=O)O)CC1 [compound 118, 1-(2-(methyl(4-(trifluoromethyl)phenyl)amino)phenyl)piperidine-4-carboxylic acid]	1000 to 10000
